In BindingDB's records for doi:10.1021/jm301186p (Universidad De Zaragoza, 2012):

Assay: Inhibition of aggregation of human DHFR-fused amyloid beta (1 to 42) expressed in yeast harboring erg6delta assessed as increase in yeast viability measured up to 20 hrs in presence of MTX

Compared with `O=S(=O)(Nc1ccc(N2CCCCC2)cc1)c1cc(Cl)sc1Cl`, `Nc1c(S(=O)(=O)c2ccc(Cl)cc2)cnc2cc(-c3ccccc3)nn12` is 3.3-fold higher in IC50: 0.7 µM for the first, 2.3 µM for the second.

`Cc1nc2sc3c(c2c(=O)o1)CCCC3` and `O=C(Nc1ccccc1)Nc1ccc(Cl)cc1[N+](=O)[O-]` are within 1.5-fold of each other in IC50: 1.2 µM for the first, 0.9 µM for the second.
